Measurements as given in PubChem BioAssay AID248 (DTP/NCI, 2004).
“And” between values parts separate entries of the source, which are not always exact repeats. Equal values may be shown once. Toxic doses and inconclusive results are not listed. Cut-off read from the data, not from the text of the source: active = T/C of 150% or more; inactive = T/C below 125%.

Tested on: L1210 leukemia ip in BDF1 mice, survival T/C
Assay: NCI In Vivo Anticancer Drug Screen. Data for tumor model L1210 Leukemia (intraperitoneal) in B6D2F1 (BDF1) mice
Settings: higher = longer survival
Procedure, shortened: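 Each compound was tested against a transplantable tumor grown in mice. The endpoint was survival, with treated animals benchmarked against vehicle controls as a simple ratio.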

Measured: T/C

CN(Cc1cnc2nc(N)nc(N)c2n1)c1ccc(C(=O)N[C@@H](CCC(=O)O)C(=O)O)cc1
inactive: endpoint: mean survival time, dose: 0.02 mg/kg/injection, schedule: Q01DX Z (ip), vehicle: saline 94 % of control | endpoint: mean survival time, dose: 0.03 mg/kg/injection, schedule: Q#A X Z (ip), vehicle: saline 107 % of control | endpoint: mean survival time, dose: 0.08 mg/kg/injection, schedule: Q01DX009 (ip), vehicle: sodium bicarbonate 99 % of control and 108 % of control | endpoint: mean survival time, dose: 0.1 mg/kg/injection, schedule: Q03HX008 (ip), vehicle: sodium bicarbonate 105 % of control | endpoint: mean survival time, dose: 0.1 mg/kg/injection, schedule: Q## X008 (other), vehicle: sodium bicarbonate 105 % of control | endpoint: mean survival time, dose: 0.12 mg/kg/injection, schedule: Q01DX Z (ip), vehicle: saline 108 % of control | endpoint: mean survival time, dose: 0.13 mg/kg/injection, schedule: Q01DX Z (sc), vehicle: saline 110 % of control | endpoint: mean survival time, dose: 0.13 mg/kg/injection, schedule: Q03HX016 (ip), vehicle: other 107 % of control | endpoint: mean survival time, dose: 0.15 mg/kg/injection, schedule: Q03HX008 (ip), vehicle: sodium bicarbonate 109 % of control | endpoint: mean survival time, dose: 0.15 mg/kg/injection, schedule: Q## X008 (other), vehicle: sodium bicarbonate 109 % of control | endpoint: mean survival time, dose: 0.19 mg/kg/injection, schedule: Q01DX009 (ip), vehicle: sodium bicarbonate 102 % of control | endpoint: mean survival time, dose: 0.19 mg/kg/injection, schedule: Q## X Z (ip), vehicle: saline 102 % of control | endpoint: mean survival time, dose: 0.38 mg/kg/injection, schedule: Q## X Z (ip), vehicle: saline 111 % of control | endpoint: mean survival time, dose: 0.49 mg/kg/injection, schedule: Q03HX003 (ip), vehicle: other 108 % of control | endpoint: mean survival time, dose: 0.49 mg/kg/injection, schedule: Q03HX004 (ip), vehicle: other 104 % of control | endpoint: mean survival time, dose: 0.49 mg/kg/injection, schedule: Q03HX005 (ip), vehicle: other 107 % of control | endpoint: mean survival time, dose: 0.49 mg/kg/injection, schedule: Q03HX006 (ip), vehicle: other 110 % of control | endpoint: mean survival time, dose: 0.5 mg/kg/injection, schedule: Q01DX006 (iv), vehicle: saline 112 % of control | endpoint: mean survival time, dose: 0.5 mg/kg/injection, schedule: Q07DX003 (ip), vehicle: saline 107 % of control | endpoint: mean survival time, dose: 0.73 mg/kg/injection, schedule: Q01DX001 (ip), vehicle: other 94 % of control | endpoint: mean survival time, dose: 0.73 mg/kg/injection, schedule: Q03HX002 (ip), vehicle: other 104 % of control | endpoint: mean survival time, dose: 0.73 mg/kg/injection, schedule: Q03HX003 (ip), vehicle: other 102 % of control | endpoint: mean survival time, dose: 0.73 mg/kg/injection, schedule: Q03HX004 (ip), vehicle: other 107 % of control | endpoint: mean survival time, dose: 0.73 mg/kg/injection, schedule: Q03HX006 (ip), vehicle: other 109 % of control | endpoint: mean survival time, dose: 0.75 mg/kg/injection, schedule: Q## X Z (ip), vehicle: other 108 % of control | endpoint: mean survival time, dose: 0.9 mg/kg/injection, schedule: Q07DX003 (ip), vehicle: saline 102 % of control | endpoint: mean survival time, dose: 1.1 mg/kg/injection, schedule: Q01DX001 (ip), vehicle: other 95 % of control | endpoint: mean survival time, dose: 1.1 mg/kg/injection, schedule: Q03HX002 (ip), vehicle: other 112 % of control | endpoint: mean survival time, dose: 1.1 mg/kg/injection, schedule: Q03HX003 (ip), vehicle: other 107 % of control | endpoint: mean survival time, dose: 1.1 mg/kg/injection, schedule: Q03HX005 (ip), vehicle: other 109 % of control | endpoint: mean survival time, dose: 1.5 mg/kg/injection, schedule: Q01DX001 (ip), vehicle: water 109 % of control and 110 % of control | endpoint: mean survival time, dose: 1.62 mg/kg/injection, schedule: Q03HX002 (ip), vehicle: other 108 % of control | endpoint: mean survival time, dose: 1.62 mg/kg/injection, schedule: Q03HX003 (ip), vehicle: other 109 % of control | endpoint: mean survival time, dose: 1.8 mg/kg/injection, schedule: Q07DX003 (ip), vehicle: saline 107 % of control | endpoint: mean survival time, dose: 2.0 mg/kg/injection, schedule: Q01DX001 (ip), vehicle: saline 107 % of control | endpoint: mean survival time, dose: 2.25 mg/kg/injection, schedule: Q01DX001 (ip), vehicle: water 111 % of control | endpoint: mean survival time, dose: 2.25 mg/kg/injection, schedule: Q## X006 (ip), vehicle: other 108 % of control | endpoint: mean survival time, dose: 3.4 mg/kg/injection, schedule: Q01DX009 (ip), vehicle: sodium bicarbonate 96 % of control | endpoint: mean survival time, dose: 3.5 mg/kg/injection, schedule: Q07DX003 (ip), vehicle: saline 111 % of control | endpoint: mean survival time, dose: 4.0 mg/kg/injection, schedule: Q01DX009 (ip), vehicle: other 93 % of control | endpoint: mean survival time, dose: 4.0 mg/kg/injection, schedule: Q01DX009 (ip), vehicle: sodium bicarbonate 95 % of control | endpoint: mean survival time, dose: 4.0 mg/kg/injection, schedule: Q01DX Z (oral), vehicle: saline 109 % of control | endpoint: mean survival time, dose: 4.0 mg/kg/injection, schedule: Q01DX Z (sc), vehicle: saline 109 % of control | endpoint: mean survival time, dose: 4.0 mg/kg/injection, schedule: Q12HX007 (ip), vehicle: other 109 % of control | endpoint: mean survival time, dose: 4.0 mg/kg/injection, schedule: Q#A X Z (ip), vehicle: saline 112 % of control | endpoint: mean survival time, dose: 5.0 mg/kg/injection, schedule: Q01DX009 (ip), vehicle: sodium bicarbonate 105 % of control | endpoint: mean survival time, dose: 6.0 mg/kg/injection, schedule: Q12HX005 (ip), vehicle: other 104 % of control | endpoint: mean survival time, dose: 6.0 mg/kg/injection, schedule: Q12HX006 (ip), vehicle: other 102 % of control | endpoint: mean survival time, dose: 6.3 mg/kg/injection, schedule: Q01DX009 (ip), vehicle: saline 108 % of control | endpoint: mean survival time, dose: 7.2 mg/kg/injection, schedule: Q## X032 (ip), vehicle: water 102 % of control | endpoint: mean survival time, dose: 8.0 mg/kg/injection, schedule: Q01DX006 (ip), vehicle: other 110 % of control | endpoint: mean survival time, dose: 8.0 mg/kg/injection, schedule: Q01DX007 (ip), vehicle: other 111 % of control | endpoint: mean survival time, dose: 8.0 mg/kg/injection, schedule: Q01DX008 (ip), vehicle: other 100 % of control | endpoint: mean survival time, dose: 8.0 mg/kg/injection, schedule: Q01DX009 (oral), vehicle: other 107 % of control | endpoint: mean survival time, dose: 8.0 mg/kg/injection, schedule: Q01DX015 (ip), vehicle: other 102 % of control | endpoint: mean survival time, dose: 8.0 mg/kg/injection, schedule: Q01DX Z (oral), vehicle: saline 97 % of control | endpoint: mean survival time, dose: 9.0 mg/kg/injection, schedule: Q01DX005 (ip), vehicle: other 100 % of control | endpoint: mean survival time, dose: 9.0 mg/kg/injection, schedule: Q12HX004 (ip), vehicle: other 111 % of control | endpoint: mean survival time, dose: 9.0 mg/kg/injection, schedule: Q## X008 (ip), vehicle: other 102 % of control | endpoint: mean survival time, dose: 13.0 mg/kg/injection, schedule: Q01DX004 (ip), vehicle: other 101 % of control | endpoint: mean survival time, dose: 13.0 mg/kg/injection, schedule: Q01DX005 (ip), vehicle: other 102 % of control | endpoint: mean survival time, dose: 13.0 mg/kg/injection, schedule: Q03HX005 (ip), vehicle: other 100 % of control | endpoint: mean survival time, dose: 13.0 mg/kg/injection, schedule: Q12HX004 (ip), vehicle: other 94 % of control | endpoint: mean survival time, dose: 13.5 mg/kg/injection, schedule: Q## X008 (ip), vehicle: other 93 % of control | endpoint: mean survival time, dose: 16.0 mg/kg/injection, schedule: Q03HX008 (ip), vehicle: other 98 % of control | endpoint: mean survival time, dose: 20.0 mg/kg/injection, schedule: Q01DX003 (ip), vehicle: other 101 % of control | endpoint: mean survival time, dose: 20.0 mg/kg/injection, schedule: Q## X008 (ip), vehicle: other 102 % of control | endpoint: mean survival time, dose: 30.0 mg/kg/injection, schedule: Q01DX003 (ip), vehicle: other 102 % of control | endpoint: mean survival time, dose: 30.0 mg/kg/injection, schedule: Q04DX004 (ip), vehicle: other 96 % of control | endpoint: mean survival time, dose: 32.0 mg/kg/injection, schedule: Q01DX001 (sc), vehicle: other 112 % of control | endpoint: mean survival time, dose: 40.0 mg/kg/injection, schedule: Q04DX003 (ip), vehicle: sodium bicarbonate 95 % of control | endpoint: mean survival time, dose: 45.0 mg/kg/injection, schedule: Q01DX002 (ip), vehicle: other 109 % of control | endpoint: mean survival time, dose: 67.0 mg/kg/injection, schedule: Q01DX002 (ip), vehicle: other 98 % of control | endpoint: mean survival time, dose: 67.0 mg/kg/injection, schedule: Q12HX002 (ip), vehicle: other 100 % of control | endpoint: mean survival time, dose: 70.0 mg/kg/injection, schedule: Q04DX002 (ip), vehicle: sodium bicarbonate 99 % of control | endpoint: mean survival time, dose: 112.0 mg/kg/injection, schedule: Q07DX003 (ip), vehicle: saline 97 % of control | endpoint: mean survival time, dose: 128.0 mg/kg/injection, schedule: Q01DX001 (oral), vehicle: other 108 % of control | endpoint: mean survival time, dose: 150.0 mg/kg/injection, schedule: Q03HX002 (ip), vehicle: other 93 % of control | endpoint: mean survival time, dose: 200.0 mg/kg/injection, schedule: Q04DX002 (ip), vehicle: saline 111 % of control | endpoint: mean survival time, dose: 250.0 mg/kg/injection, schedule: Q01DX001 (ip), vehicle: water 112 % of control | endpoint: mean survival time, dose: 256.0 mg/kg/injection, schedule: Q01DX001 (oral), vehicle: other 97 % of control | endpoint: mean survival time, dose: 256.0 mg/kg/injection, schedule: Q01DX001 (sc), vehicle: other 98 % of control | endpoint: mean survival time, dose: 300.0 mg/kg/injection, schedule: Q01DX001 (ip), vehicle: water 105 % of control | endpoint: mean survival time, dose: 375.0 mg/kg/injection, schedule: Q01DX001 (ip), vehicle: water 101 % of control | endpoint: mean survival time, dose: 512.0 mg/kg/injection, schedule: Q01DX001 (oral), vehicle: other 111 % of control | endpoint: mean survival time, dose: 37.5 micrograms/kg/injection, schedule: Q01DX009 (ip), vehicle: saline 104 % of control and 110 % of control | endpoint: mean survival time, dose: 70.0 micrograms/kg/injection, schedule: Q01DX Z (ip), vehicle: carboxymethylcellulose (CMC) 97 % of control | endpoint: mean survival time, dose: 75.0 micrograms/kg/injection, schedule: Q01DX009 (ip), vehicle: saline 107 % of control and 110 % of control | endpoint: mean survival time, dose: 100.0 micrograms/kg/injection, schedule: Q01DX015 (ip), vehicle: other 105 % of control | endpoint: mean survival time, dose: 140.0 micrograms/kg/injection, schedule: Q01DX Z (ip), vehicle: carboxymethylcellulose (CMC) 110 % of control | endpoint: mean survival time, dose: 150.0 micrograms/kg/injection, schedule: Q01DX015 (ip), vehicle: other 108 % of control | endpoint: mean survival time, dose: 6000.0 micrograms/kg/injection, schedule: Q01DX009 (ip), vehicle: Klucel (hydroxypropylcellulose) (HPC) 100 % of control | endpoint: median survival time, dose: 5.0 mg/kg/injection, schedule: Q01DX009 (ip), vehicle: other 110 % of control | endpoint: median survival time, dose: 8.0 mg/kg/injection, schedule: Q01DX001 (ip), vehicle: sodium bicarbonate 111 % of control | endpoint: median survival time, dose: 32.0 mg/kg/injection, schedule: Q01DX001 (ip), vehicle: sodium bicarbonate 110 % of control
